Measured values taken from US8466195B2, “Methods and compositions for treating complications of diabetes and vascular diseases using flavones” (Salk Institute for Biological Studies, priority 2009, dated 2013).

Columns and labels:
Type in all cases: cell-based
HT22 cells = test: Oxidative glutamate toxicity (MTT cell viability); details: Mus musculus, HT-22; 5 mM glutamate, 24 hours, MTT; read-out: EC50 oxid. glut. tox.
Method: Cell viability was determined by a modified version of 3-(4,5-dimethylthiazol-2-yl)-2,5-diphenyl tetrazolium bromide (MTT) assay based on the standard procedure (Hansen M B et al. J. Immunol. Methods 119:203-210, 1989). Briefly, cells were seeded onto 96-well microtiter plates at a density of 5×10^3 cells per well. The next day, the medium was replaced with DMEM supplemented with 7.5% DFCS and the cells were treated with the different fisetin derivatives alone or in the presence of 5 mM glutamate. Twenty four hours later, the medium in each well was aspirated and replaced with fresh medium containing 2.5 μg/ml MTT. After 4 hours of incubation at 37° C., cells were solubilized with 100 μA of a solution containing 50% dimethylformamide and 20% SDS (pH 4.7). The absorbance at 570 nm was measured on the following day with a microplate reader (Molecular Devices). Results obtained from the MTT assay correlated directly with the extent of cell death as confirmed visually. Controls employing wells without cells were used to determine the effects of the agents upon the assay chemistry.
As shown in panel (A) of FIG. 3, HT22 cells were untreated (ct) or treated with 10 μM fisetin (fis) in the absence of presence of 5 mM glutamate for 24 hr and GSH was measured enzymatically and normalized to protein. As shown in panel (B) of FIG. 3, HT22 cells in 96-well plates were treated with 5 mM glutamate and the indicated concentrations of fisetin. MTT reduction was measured after 24 hr.

[1] = tested on: cells treated with 20 μM iodoacetic acid (IAA); test: In vitro ischemia (iodoacetic acid, MTT cell viability); details: 20 μM IAA 2 h, MTT 20 h later
Method: Briefly, cells were seeded onto 96-well microtiter plates at a density of 5×10^3 cells per well. The next day, the medium was replaced with DMEM supplemented with 7.5% DFCS and the cells were treated with 20 μM iodoacetic acid (IAA) alone or in the presence of the different fisetin derivatives. After 2 h the medium in each well was aspirated and replaced with fresh medium without IAA but containing the fisetin derivatives. 20 h later, the medium in each well was aspirated and replaced with fresh medium containing 2.5 μg/ml MTT. After 4 h of incubation at 37° C., cells were solubilized with 100 μl of a solution containing 50% dimethylformamide and 20% SDS (pH 4.7). The absorbance at 570 nm was measured on the following day with a microplate reader (Molecular Devices). Results obtained from the MTT assay correlated directly with the extent of cell death as confirmed visually. Controls included compound alone to test for toxicity and compound with no cells to test for interference with the assay chemistry.

HT-22 nerve cells = HT-22 nerve cells exposed to glutamate: MG adducts and viability
Method: HT-22 nerve cells were exposed to 0.5 mM glutamate and Glo-1 expression monitored at 8 and 24 hrs. In panel (B) of FIG. 2, Fisetin is shown to prevent both cell death and protein glycation. HT-22 cells were exposed to 5 mM glutamate in the presence or absence of 2 μM fisetin. MG adducts were determined by Western blotting 8 hrs after glutamate exposure and viability after 24 hrs. Actin is at the bottom of the blot. In panel (C) of FIG. 2, the Glo-1 inhibitor s-p-bromobenzylglutathione […] is shown to potentiate cell death. HT-22 cells were exposed to 1 mM glutamate plus or minus 10 or 20 μM BBGD.

Structure (SMILES) | EC50 (HT22 cells) [nM] | EC50 [1] [nM] | toxicity in the absence of glutamate (HT-22 nerve cells; 20 μM BBGD, no glutamate) | cell death in the presence of glutamate (HT-22 nerve cells; 1 mM glutamate plus 10 or 20 μM BBGD)
CCOc1ccc(-c2oc3cc(C)c(C)cc3c(=O)c2O)cc1OCC | < 10000 | < 1000 |  | 
O=c1cc(-c2ccc(O)c(O)c2)oc2cc(O)c(O)cc12 | > 10000 | > 1000 |  | 
O=c1c(O)c(-c2ccc(O)c(O)c2)oc2cc(O)c(O)cc12 | < 10000 | > 1000 |  | 
Cc1cc2oc(-c3ccc(O)c(O)c3)cc(=O)c2cc1C | < 10000 | < 1000 |  | 
CCOc1ccc(-c2oc3cc(OC)c(OC)cc3c(=O)c2O)cc1OCC | < 10000 | > 1000 |  | 
COc1cccc(-c2oc3cc(OC)c(OC)cc3c(=O)c2O)c1 | < 10000 | 1000 |  | 
COc1cc2oc(-c3ccc(O)c(O)c3)cc(=O)c2cc1OC | < 10000 | < 1000 |  | 
N[C@@H](CCC(=O)N[C@@H](CSCc1ccc(Br)cc1)C(=O)NCC(=O)O)C(=O)O [BBGD, s-p-bromobenzylglutathione, reference compound] |  |  | only mildly toxic | greatly potentiates cell death
O=c1c(O)c(-c2ccc(O)c(O)c2)oc2cc(O)ccc12 [drawing 10] | < 10000 | > 1000 |  | 
CCOc1ccc(-c2cc(=O)c3cc(C)c(C)cc3o2)cc1OCC |  | > 1000 |  | 
COc1cc2oc(-c3ccc(O)c(O)c3)c(O)c(=O)c2cc1OC | < 10000 | > 1000 |  | 
Cc1cc2oc(-c3ccc(O)c(O)c3)c(O)c(=O)c2cc1C | < 10000 | < 1000 |  | 
